In assay [1] the target is T1, CDGSH iron-sulfur domain-containing protein 1 (Rattus norvegicus, UniProt B0K020).
T1 sequence (B0K020 whole entry): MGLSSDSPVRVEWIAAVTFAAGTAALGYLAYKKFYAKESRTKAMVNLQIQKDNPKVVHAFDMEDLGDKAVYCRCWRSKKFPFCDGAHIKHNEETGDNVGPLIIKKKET
The experiment in a line: Displacement of [3H]rosiglitazone from rat liver mitochondrial mitoNEET by scintillation counting. Background: In a radioligand displacement assay an active substance lowers the binding of a labelled ligand.

Assay [2] deals with SH-SY5Y. The experiment in a line: Neuroprotective activity against rotenone-induced cell death in human SH-SY5Y assessed as reduction in LDH release pretreated 1 hrs before rotenone challenge measured after 24 hrs relative to control. Type of assay: functional. Also on record: scale not given: the % may be the effect or the level left. On the technique in general: Release of lactate dehydrogenase indicates damage to the cell membrane.

Assay [3] deals with SH-SY5Y. The assay is described as follows: Neuroprotective activity against rotenone-induced cell death in human SH-SY5Y assessed as reduction in LDH release pretreated 1 hrs before rotenone challenge measured after 24 hrs. Type of assay: functional, cell-based.
Assay [4] can be described thus: Inhibition of respiration in Sprague-Dawley rat mitochondria assessed as reduction in respiratory control rate. In kind it is functional.
Assay [5] is filed under the species Rattus norvegicus. The assay is described as follows: Reduction in state 3 respiration in Sprague-Dawley rat mitochondria. In kind it is functional. Also on record: scale not given: the % may be the effect or the level left.

Here are results for three compounds from ChEMBL document CHEMBL1156847, “Structure-based design of a thiazolidinedione which targets the mitochondrial protein mitoNEET” (Bioorg Med Chem Lett, 2010).

The term IC50 denotes the concentration that inhibits the measured activity by half. Compound `CCc1ccc(CCOc2ccc(CC3SC(=O)NC3=O)cc2)nc1` (configuration not stated) [PIOGLITAZONE] yielded an IC50 in assay [1] of 1000 nM.
`CN(CCOc1ccc(CC2SC(=O)NC2=O)cc1)c1ccccn1` (configuration not stated) [ROSIGLITAZONE] showed an IC50 in assay [1] of 1100 nM.
Regarding `CC(C)(C)c1cc(CC2SC(=O)N=C2O)cc(C(C)(C)C)c1O` (configuration not stated), the Activity in assay [2] was 40%; in assay [3] it was “Dose-dependent effect”; in assay [5], 45%. Besides, the IC50 in assay [1] came out at 900 nM; in assay [4] it was 2400 nM.
